Assays:
Assay type in all cases: cell-based
IL-1β = test: Whole bovine blood assay, LPS-induced IL-1β (inhibition / overstimulation); details: drug concentration giving overstimulation (OS) of LPS-induced IL-1β, top concentration 250 μM
Method in brief: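 IL-1β was quantified by MSD U-Plex chemiluminescence in plasma and normalized to BCA total protein. Bovine blood was pretreated 4 h at 37 °C with compound dilutions before 18 h LPS challenge (1 μg/mL final). Rising IL-1β at high concentrations was recorded as overstimulation.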

IL-6 = test: Whole bovine blood assay, LPS-induced IL-6; details: fresh whole bovine blood, LPS stimulant; top drug concentration 250 μM
TNF-α = test: Whole bovine blood assay, LPS-induced TNF-α; details: fresh whole bovine blood, LPS stimulant; top drug concentration 250 μM
Method in brief: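 Fresh heparinized bovine whole blood was preincubated with compound 4 h at 37 °C, then stimulated with LPS (final 1 μg/mL) for 18 h at 37 °C. Plasma TNF-α was quantified by MSD U-Plex chemiluminescent immunoassay, normalized to total protein (BCA), and IC50 taken for LPS-induced TNF-α inhibition.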

SMILES	IC50 (IL-6) [µM]	IC50 (TNF-α) [µM]	minimal effective concentration (IL-1β) [µM]
CCCNC[C@]1(O)[C@H](C)O[C@@H](O[C@H]2[C@H](C)[C@@H](O[C@@H]3O[C@H](C)C[C@H](N(C)S(=O)(=O)c4nccn4C)[C@H]3Oc3ccc(Cl)cc3)[C@](C)(O)C[C@@H](C)CN[C@H](C)[C@@H](O)[C@](C)(O)[C@@H](CC)OC(=O)[C@@H]2C)C[C@@]1(C)OC [Example B-136]	9	8	6
CCCNC[C@]1(O)[C@H](C)O[C@@H](O[C@H]2[C@H](C)[C@@H](O[C@@H]3O[C@H](C)C[C@H](N(C)S(=O)(=O)c4ccccc4)[C@H]3Oc3cccc([S+](C)[O-])c3)[C@](C)(O)C[C@@H](C)CN[C@H](C)[C@@H](O)[C@](C)(O)[C@@H](CC)OC(=O)[C@@H]2C)C[C@@]1(C)OC (stereo partly drawn) [Example B-138]	70	26	40
CCCNC[C@]1(O)[C@H](C)O[C@@H](O[C@H]2[C@H](C)[C@@H](O[C@@H]3O[C@H](C)C[C@H](N(C)S(=O)(=O)c4nccn4C)[C@H]3Oc3cccc([S+](C)[O-])c3)[C@](C)(O)C[C@@H](C)CN[C@H](C)[C@@H](O)[C@](C)(O)[C@@H](CC)OC(=O)[C@@H]2C)C[C@@]1(C)OC (stereo partly drawn) [Example B-139]	73	40	40
CCCNC[C@]1(O)[C@H](C)O[C@@H](O[C@H]2[C@H](C)[C@@H](O[C@@H]3O[C@H](C)C[C@H](N(Cc4ccccc4)S(=O)(=O)c4nccn4C)[C@H]3O)[C@](C)(O)C[C@@H](C)CN[C@H](C)[C@@H](O)[C@](C)(O)[C@@H](CC)OC(=O)[C@@H]2C)C[C@@]1(C)OC [Example B-143]	8	7	2
CCCNC[C@]1(O)[C@H](C)O[C@@H](O[C@H]2[C@H](C)[C@@H](O[C@@H]3O[C@H](C)C[C@H](N(Cc4ccccc4)S(=O)(=O)c4ccc(OC)cc4)[C@H]3O)[C@](C)(O)C[C@@H](C)CN[C@H](C)[C@@H](O)[C@](C)(O)[C@@H](CC)OC(=O)[C@@H]2C)C[C@@]1(C)OC [Example B-144]	10	9	2
CCCNC[C@]1(O)[C@H](C)O[C@@H](O[C@H]2[C@H](C)[C@@H](O[C@@H]3O[C@H](C)C[C@H](N(Cc4ccccc4)S(=O)(=O)c4ccccc4)[C@H]3O)[C@](C)(O)C[C@@H](C)CN[C@H](C)[C@@H](O)[C@](C)(O)[C@@H](CC)OC(=O)[C@@H]2C)C[C@@]1(C)OC [Example B-145]	6	8	2
CCCNC[C@]1(O)[C@H](C)O[C@@H](O[C@H]2[C@H](C)[C@@H](O[C@@H]3O[C@H](C)C[C@H](N(Cc4ccc(OC)cc4)S(=O)(=O)c4nccn4C)[C@H]3O)[C@](C)(O)C[C@@H](C)CN[C@H](C)[C@@H](O)[C@](C)(O)[C@@H](CC)OC(=O)[C@@H]2C)C[C@@]1(C)OC [Example B-146]	10	10	2
CCCNC[C@]1(O)[C@H](C)O[C@@H](O[C@H]2[C@H](C)[C@@H](O[C@@H]3O[C@H](C)C[C@H](N(Cc4ccc(OC)cc4)S(=O)(=O)c4ccc(OC)cc4)[C@H]3O)[C@](C)(O)C[C@@H](C)CN[C@H](C)[C@@H](O)[C@](C)(O)[C@@H](CC)OC(=O)[C@@H]2C)C[C@@]1(C)OC [Example B-147]	5	7	1
CC[C@H]1OC(=O)[C@H](C)[C@@H](O[C@H]2C[C@@](C)(OC)[C@](O)(CN3CCCCC3)[C@H](C)O2)[C@H](C)[C@@H](O[C@@H]2O[C@H](C)C[C@H](N(C)S(=O)(=O)c3nccn3C)[C@H]2Oc2ccnc(F)c2)[C@](C)(O)C[C@@H](C)CN[C@H](C)[C@@H](O)[C@]1(C)O [Example C-49]	9	6	6
CC[C@H]1OC(=O)[C@H](C)[C@@H](O[C@H]2C[C@@](C)(OC)[C@](O)(CN3CCCCC3)[C@H](C)O2)[C@H](C)[C@@H](O[C@@H]2O[C@H](C)C[C@H](N(C)S(=O)(=O)c3ccccc3)[C@H]2Oc2ccccc2)[C@](C)(O)C[C@@H](C)CN[C@H](C)[C@@H](O)[C@]1(C)O [Example C-53]	2	2	6
CC[C@H]1OC(=O)[C@H](C)[C@@H](O[C@H]2C[C@@](C)(OC)[C@](O)(CN3CCCCC3)[C@H](C)O2)[C@H](C)[C@@H](O[C@@H]2O[C@H](C)C[C@H](N(C)S(=O)(=O)c3ccccc3)[C@H]2Oc2ccc(F)cc2)[C@](C)(O)C[C@@H](C)CN[C@H](C)[C@@H](O)[C@]1(C)O [Example C-54]	4	2	6
CC[C@H]1OC(=O)[C@H](C)[C@@H](O[C@H]2C[C@@](C)(OC)[C@](O)(CN3CCCCC3)[C@H](C)O2)[C@H](C)[C@@H](O[C@@H]2O[C@H](C)C[C@H](N(C)S(=O)(=O)c3ccccc3)[C@H]2Oc2ccnc(F)c2)[C@](C)(O)C[C@@H](C)CN[C@H](C)[C@@H](O)[C@]1(C)O [Example C-55]	9	6	6

Further lines, with some results ahead:

IC50 (IL-6) [µM]	IC50 (TNF-α) [µM]	SMILES	minimal effective concentration (IL-1β) [µM]
9	5	CC[C@H]1OC(=O)[C@H](C)[C@@H](O[C@H]2C[C@@](C)(OC)[C@](O)(CN3CCCC3)[C@H](C)O2)[C@H](C)[C@@H](O[C@@H]2O[C@H](C)C[C@H](N(C)S(=O)(=O)c3ccc(Cl)cc3)[C@H]2O)[C@](C)(O)C[C@@H](C)CN[C@H](C)[C@@H](O)[C@]1(C)O [Example C-3]	16
32	6	CC[C@H]1OC(=O)[C@H](C)[C@@H](O[C@H]2C[C@@](C)(OC)[C@](O)(CN3CCSCC3)[C@H](C)O2)[C@H](C)[C@@H](O[C@@H]2O[C@H](C)C[C@H](N(C)S(=O)(=O)c3ccc(Cl)cc3)[C@H]2O)[C@](C)(O)C[C@@H](C)CN[C@H](C)[C@@H](O)[C@]1(C)O [Example C-6]	16
50	66	CC[C@H]1OC(=O)[C@H](C)[C@@H](O[C@H]2C[C@@](C)(OC)[C@](O)(CN3CCN(C)CC3)[C@H](C)O2)[C@H](C)[C@@H](O[C@@H]2O[C@H](C)C[C@H](N(C)S(=O)(=O)c3ccc(Cl)cc3)[C@H]2O)[C@](C)(O)C[C@@H](C)CN[C@H](C)[C@@H](O)[C@]1(C)O [Example C-7]	6
23	23	CC[C@H]1OC(=O)[C@H](C)[C@@H](O[C@H]2C[C@@](C)(OC)[C@](O)(Cn3cnnn3)[C@H](C)O2)[C@H](C)[C@@H](O[C@@H]2O[C@H](C)C[C@H](N(C)S(=O)(=O)c3ccc(Cl)cc3)[C@H]2O)[C@](C)(O)C[C@@H](C)CN[C@H](C)[C@@H](O)[C@]1(C)O [Example C-9]	8
140	13	CC[C@H]1OC(=O)[C@H](C)[C@@H](O[C@H]2C[C@@](C)(OC)[C@](O)(CN3CCN(CC)CC3)[C@H](C)O2)[C@H](C)[C@@H](O[C@@H]2O[C@H](C)C[C@H](N(C)S(=O)(=O)Nc3ccc(C(F)(F)F)cc3)[C@H]2O)[C@](C)(O)C[C@@H](C)CN[C@H](C)[C@@H](O)[C@]1(C)O [Example C-12]	100
> 250	> 250	CC[C@H]1OC(=O)[C@H](C)[C@@H](O[C@H]2C[C@@](C)(OC)[C@](O)(CN3CCS(=O)(=O)CC3)[C@H](C)O2)[C@H](C)[C@@H](O[C@@H]2O[C@H](C)C[C@H](N(C)S(=O)(=O)Nc3ccc(C(F)(F)F)cc3)[C@H]2O)[C@](C)(O)C[C@@H](C)CN[C@H](C)[C@@H](O)[C@]1(C)O [Example C-13]	6
> 250	> 250	CC[C@H]1OC(=O)[C@H](C)[C@@H](O[C@H]2C[C@@](C)(OC)[C@](O)(CN3CCN(C(C)C)CC3)[C@H](C)O2)[C@H](C)[C@@H](O[C@@H]2O[C@H](C)C[C@H](N(C)S(=O)(=O)Nc3ccc(C(F)(F)F)cc3)[C@H]2O)[C@](C)(O)C[C@@H](C)CN[C@H](C)[C@@H](O)[C@]1(C)O [Example C-14]	>250
48	10	CC[C@H]1OC(=O)[C@H](C)[C@@H](O[C@H]2C[C@@](C)(OC)[C@](O)(CN3CCN(S(C)(=O)=O)CC3)[C@H](C)O2)[C@H](C)[C@@H](O[C@@H]2O[C@H](C)C[C@H](N(C)S(=O)(=O)Nc3ccc(C(F)(F)F)cc3)[C@H]2O)[C@](C)(O)C[C@@H](C)CN[C@H](C)[C@@H](O)[C@]1(C)O [Example C-15]	16
23	33	CC[C@H]1OC(=O)[C@H](C)[C@@H](O[C@H]2C[C@@](C)(OC)[C@](O)(CN3CCCCC3)[C@H](C)O2)[C@H](C)[C@@H](O[C@@H]2O[C@H](C)C[C@H](N(C)S(=O)(=O)N(CC)CC)[C@H]2O)[C@](C)(O)C[C@@H](C)CN[C@H](C)[C@@H](O)[C@]1(C)O [Example C-35]	11
4	4	CC[C@H]1OC(=O)[C@H](C)[C@@H](O[C@H]2C[C@@](C)(OC)[C@](O)(CN3CCCCC3)[C@H](C)O2)[C@H](C)[C@@H](O[C@@H]2O[C@H](C)C[C@H](N(CC(C)C)S(=O)(=O)Nc3ccc(C(F)(F)F)cc3)[C@H]2O)[C@](C)(O)C[C@@H](C)CN[C@H](C)[C@@H](O)[C@]1(C)O [Example C-44]	6
6	4	CC[C@H]1OC(=O)[C@H](C)[C@@H](O[C@H]2C[C@@](C)(OC)[C@](O)(CN3CCCCC3)[C@H](C)O2)[C@H](C)[C@@H](O[C@@H]2O[C@H](C)C[C@H](N(C)S(=O)(=O)c3ccccc3)[C@H]2Oc2ccc(Cl)cn2)[C@](C)(O)C[C@@H](C)CN[C@H](C)[C@@H](O)[C@]1(C)O [Example C-48]	6
